Measured values published in the Kinase Knowledgebase extract (Sharma et al. 2016).

Legend:
CDK2 = CDK2 (UniProt P24941); assay: Enzyme Assay
CDK2 (human) = CDK2 (human) (UniProt P24941); assay: Cell-Based Assay

| SMILES | IC50 (CDK2) [µM] | further results |
| --- | --- | --- |
| CC(C)Cc1[nH]nc2c1N=C(c1ccccc1Cl)c1cc([N+](=O)[O-])ccc1N2 | 1 to 9.99 | – |
| Clc1ccc2c(c1)C(c1ccccc1)=Nc1c[nH]nc1N2 | 1 to 9.99 | – |
| O=C(O)c1ccc2c(c1)C(c1ccccc1)=Nc1c[nH]nc1N2 | 1 to 9.99 | – |
| Clc1ccc2c(c1)C(c1ccccc1Cl)=Nc1c[nH]nc1N2 | 10 to 30 | – |
| O=[N+]([O-])c1ccc2c(c1)C(c1ccccc1)=Nc1c(n[nH]c1-c1ccc3c(c1)OCCO3)N2 | 10 to 30 | – |
| O=[N+]([O-])c1ccc2c(c1)C(c1ccccc1)=Nc1c(n[nH]c1-c1ccc3c(c1)OCO3)N2 | 10 to 30 | – |
| O=[N+]([O-])c1ccc2c(c1)C(c1ccccc1)=Nc1c(n[nH]c1-c1ncc[nH]1)N2 | 1 to 9.99 | – |
| O=C(O)c1ccc2c(c1)C(c1ccccc1F)=Nc1c[nH]nc1N2 | 1 to 9.99 | – |
| Fc1ccccc1C1=Nc2c[nH]nc2Nc2ccc(Cl)cc21 | 1 to 9.99 | – |
| O=C(c1ccc2c(c1)C(c1ccccc1F)=Nc1c[nH]nc1N2)N(CCO)CCO | 1 to 9.99 | – |
| O=[N+]([O-])c1ccc2c(c1)C(c1ccccc1)=Nc1c(n[nH]c1-c1cccnc1)N2 | 1 to 9.99 | – |
| CN(C)C(=O)c1[nH]nc2c1N=C(c1ccccc1Cl)c1cc([N+](=O)[O-])ccc1N2 | 1 to 9.99 | – |
| CCOC(=O)c1ccc2c(c1)C(c1ccccc1F)=Nc1c(n[nH]c1C)N2 | – | IC50 (CDK2 (human); hct 116): 1.1 to 9.99 µM; IC50 (CDK2 (human); mda-mb-435): 1.1 to 9.99 µM; IC50 (CDK2 (human); sw480): 1.1 to 9.99 µM |
| COC(=O)c1ccc2c(c1)C(c1ccccc1)=Nc1c[nH]nc1N2 | 1 to 9.99 | – |
| Cc1[nH]nc2c1N=C(c1ccccc1F)c1cc(C#N)ccc1N2 | – | IC50 (CDK2 (human); hct 116): 1.1 to 9.99 µM; IC50 (CDK2 (human); mda-mb-435): 0.01 to 1 µM; IC50 (CDK2 (human); sw480): 0.01 to 1 µM |
| Fc1ccccc1C1=Nc2c[nH]nc2Nc2ccc(I)cc21 | 1 to 9.99 | – |
| N#Cc1ccc2c(c1)C(c1ccccc1F)=Nc1c(n[nH]c1CO)N2 | – | IC50 (CDK2 (human); mda-mb-435): 0.01 to 1 µM; IC50 (CDK2 (human); sw480): 0.01 to 1 µM |
| CC(=O)Nc1ccc2c(c1)C(c1ccccc1Cl)=Nc1c(n[nH]c1C)N2 | – | IC50 (CDK2 (human); mda-mb-435): 0.01 to 1 µM; IC50 (CDK2 (human); sw480): 0.01 to 1 µM |
| O=[N+]([O-])c1ccc2c(c1)C(c1ccccc1Cl)=Nc1c(n[nH]c1-c1ccc(OC(F)(F)F)cc1)N2 | – | IC50 (CDK2 (human); hct 116): 10 to 30 µM |

The next lines start with results.

| IC50 (CDK2) [µM] | SMILES | further results |
| --- | --- | --- |
| 1 to 9.99 | Cc1ccc(-c2[nH]nc3c2N=C(c2ccccc2Cl)c2cc([N+](=O)[O-])ccc2N3)cc1 | – |
| 1 to 9.99 | O=[N+]([O-])c1ccc2c(c1)C(c1ccccc1Cl)=Nc1c(n[nH]c1-c1ccc3ccccc3c1)N2 | – |
| 1 to 9.99 | O=[N+]([O-])c1ccc2c(c1)C(c1ccccc1Cl)=Nc1c(n[nH]c1-c1cccc(O)c1)N2 | – |
| 1 to 9.99 | CCOc1cccc(-c2[nH]nc3c2N=C(c2ccccc2Cl)c2cc([N+](=O)[O-])ccc2N3)c1 | – |
| 10 to 30 | O=[N+]([O-])c1ccc2c(c1)C(c1ccccc1)=Nc1c(n[nH]c1-c1ccccc1F)N2 | – |
| 1 to 9.99 | N#Cc1cccc(-c2[nH]nc3c2N=C(c2ccccc2Cl)c2cc([N+](=O)[O-])ccc2N3)c1 | – |
| 1 to 9.99 | Cn1cccc1-c1[nH]nc2c1N=C(c1ccccc1Cl)c1cc([N+](=O)[O-])ccc1N2 | – |
| 10 to 30 | COc1ccccc1-c1[nH]nc2c1N=C(c1ccccc1Cl)c1cc([N+](=O)[O-])ccc1N2 | – |
| 1 to 9.99 | CCc1ccc(-c2[nH]nc3c2N=C(c2ccccc2Cl)c2cc([N+](=O)[O-])ccc2N3)o1 | – |
| 1 to 9.99 | CN(C)c1ccc(-c2[nH]nc3c2N=C(c2ccccc2Cl)c2cc([N+](=O)[O-])ccc2N3)cc1 | – |
| 1 to 9.99 | Cc1ccc(-c2[nH]nc3c2N=C(c2ccccc2Cl)c2cc([N+](=O)[O-])ccc2N3)s1 | – |
| 1 to 9.99 | Cc1cccc(-c2[nH]nc3c2N=C(c2ccccc2Cl)c2cc([N+](=O)[O-])ccc2N3)c1 | – |
| 10 to 30 | O=[N+]([O-])c1ccc2c(c1)C(c1ccccc1Cl)=Nc1c(n[nH]c1-c1ccccc1[N+](=O)[O-])N2 | – |
| 0.01 to 0.99 | O=[N+]([O-])c1ccc2c(c1)C(c1ccccc1Cl)=Nc1c(n[nH]c1-c1ccsc1)N2 | – |
| 1 to 9.99 | N#Cc1ccccc1-c1[nH]nc2c1N=C(c1ccccc1Cl)c1cc([N+](=O)[O-])ccc1N2 | – |
| 10 to 30 | O=[N+]([O-])c1ccc2c(c1)C(c1ccccc1Cl)=Nc1c(n[nH]c1-c1cccc(Oc3ccccc3)c1)N2 | – |
